EC50 and IC50 data for six compounds are collected here from patent publication US6869964B2, “Heterocyclicsulfonamide hepatitis C virus inhibitors” (Bristol-Myers Squibb Company, priority 2002, dated 2005).

In experiment [1] the test system is HCV replicon in Huh7 cells. The experiment can be described thus: HCV replicon cell-based assay (FRET). More on the design: species or system HCV strain 1B. The note with it: Hepatitis C virus, Huh-7; replicon, activity range; read-out: EC50 a, b, c (Activity Table). The text has this: HCV Replicon Cell-based Assay
An HCV replicon whole cell system was established as described by Lohmann V, Korner F, Koch J, Herian U, Theilmann L, Bartenschlager R., Science 285(5424): 110-3 (1999). This system enabled us to evaluate the effects of our HCV Protease compounds on HICV RNA replication. Briefly, using the HCV strain 1B sequence described in the Lohmann paper (Assession number: AJ238799), an HCV cDNA was generated encoding the 5′ internal ribosome entry site (IRES), the neomycin resistance gene, the EMCV (encephalomyocarditis virus)-IRES and the HCV nonstructural proteins, NS3-NS5B, and 3′ non-translated region (NTR). In vitro transcripts of the cDNA were transfected into the human hepatoma cell line, Huh7. […] Resulting cell lines were characterized for positive and negative strand RNA production and protein production over time.
Huh7 cells, constitutively expressing the HCV replicon, were grown in Dulbecco's Modified Eagle Media (DMEM) containing 10% Fetal calf serum (FCS) and 1 mg/ml G418 (Gibco-BRL). Cells were seeded the night before (1.5×10^4 cells/well) in 96-well tissue-culture sterile plates. Compound and no compound controls were prepared in DMEM containing 4% FCS, 1:100 Penicillin/Streptomysin, 1:100 L-glutamine and 5% DMSO in the dilution plate (0.5% DMSO final concentration in the assay). Compound/DMSO mixes were added to the cells and incubated for 4 days at 37° C. After 4 days, plates were rinsed thoroughly with Phosphate-Buffered Saline (PBS) (3 times 150 μl). The cells were lysed with 25 μl of a lysis assay reagent containing the FRET peptide (RET S1, as described for the in vitro enzyme assay). The lysis assay reagent was made from 5× cell Luciferase cell culture lysis reagent(Promega #E153A) diluted to 1× with distilled water, NaCl added to 150 mM final, the FRET peptide diluted to 10 μM final from a 2 mM stock in 100% DMSO. The plate was then placed into the Cytofluor 4000 instrument which had been set to 340 nm excitation/490 emission, automatic mode for 21 cycles and the plate read in a kinetic mode. EC50 determinations were carried out as described for the IC50 determinations.
On the technique in general: In antiviral work, replicon cells carry a viral genome segment that copies itself.

Experiment [2] addresses T1, HCV NS3/4A protease complex (BMS strain) (Hepatitis C virus genotype 1a, UniProt P27958, C1454S).
T1 construct: HCV NS3/4A protease complex (amino acids 1027 to 1711); inferred from pET21b vector and Ni-NTA purification; made in house; host or cells: Escherichia coli BL21 (DE3), pET21b
The experiment can be described thus: Recombinant HCV NS3/4A protease complex FRET peptide assay, BMS strain. The class given is biochemical, HCV genotype 1a. The conditions noted are these: NS3/4A BMS Strain, activity range; read-out: IC50 a, b, c (Activity Table). An excerpt:
Recombinant HCV NS3/4A Protease Complex FRET Peptide Assay
The purpose of this in vitro assay was to measure the inhibition of HCV NS3 protease complexes, derived from the BMS, H77C or J4l6S strains, as described below, by compounds of the present invention. This assay provides an indication of how effective compounds of the present invention would be in inhibiting HCV proteolytic activity.
Serum from an HCV-infected patient was obtained from Dr. T. Wright, San Francisco Hospital. An engineered full-length cDNA template of the HCV genome (BMS strain) was constructed from DNA fragments obtained by reverse transcription-PCR (RT-PCR) of serum RNA and using primers selected on the basis of homology between other genotype la strains. From the determination of the entire genome sequence, a genotype la was assigned to the HCV isolate according to the classification of Simmonds et al. (See P Simmonds, K A Rose, S Graham, S W Chan, F McOmish, B C Dow, E A Follett, P L Yap and H Marsden, J. Clin. Microbiol., 31(6), 1493-1503 (1993)). […] The infectious clones, H77C (1a genotype) and J4 L6S (1b genotype) were obtained from R. Purcell (NIH) and the sequences are published in Genbank (AAB67036, see Yanagi, M., Purcell, R. H., Emerson, S. U. and Bukh, J. Proc. Natl. Acad. Sci. U.S.A. 94(16),8738-8743 (1997); AF054247, see Yanagi, M., St Claire, M., Shapiro, M., Emerson, S. U., Purcell, R. H. and Bukh, J, Virology 244 (1), 161-172. (1998)).
The BMS, H77C and J4 L6S strains were used for production of recombinant NS3/4A protease complexes. DNA encoding the recombinant HCV NS3/4A protease complex (amino acids 1027 to 1711) for these strains were manipulated as described by P. Gallinari et al. (see Gallinari P, Paolini C, Brennan D, Nardi C, Steinkuhler C, De Francesco R. Biochemistry. 38(17):5620-32, (1999)). Briefly, a three-lysine solubilizing tail was added at the 3′-end of the NS4A coding region. The cysteine in the P1 position of the NS4A-NS4B cleavage site (amino acid 1711) was changed to a glycine to avoid the proteolytic cleavage of the lysine tag. Furthermore, a cysteine to serine mutation was introduced by PCR at amino acid position 1454 to prevent the autolytic cleavage in the NS3 helicase domain. The variant DNA fragment was cloned in the pET21b bacterial expression vector (Novagen) and the NS3/4A complex was expressed in Escherichia coli strain BL21 (DE3) (Invitrogen) following the protocol described by P. Gallinari et al. (see Gallinari P, Brennan D, Nardi C, Brunetti M, Tomei L, Steinkuhler C, De Francesco R., J Virol. 72(8):6758-69 (1998)) with modifications. Briefly, NS3/4A expression was induced with 0.5 mM Isopropyl β-D-1-thiogalactopyranoside (IPTG) for 22 hr at 20° C. A typical fermentation (10 L) yielded approximately 80 g of wet cell paste. The cells were resuspended in lysis buffer (10 mL/g) consisting of 25 mM N-(2-Hydroxyethyl)Piperazine-N′-(2-Ethane Sulfonic acid) (HEPES), pH7.5, 20% glycerol, 500 mM Sodium Chloride (NaCl), 0.5% Triton-X100, 1 ug/ml lysozyme, 5 mM Magnesium Chloride (MgCl2), 1 ug/ml DnaseI, 5 mM β-Mercaptoethanol (βME), Protease inhibitor—Ethylenediamine Tetraacetic acid (EDTA) free (Roche), homogenized and incubated for 20 mins at 4° C. The homogenate was sonicated and clarified by ultra-centrifugation at 235000 g for lhr at 4° C. Imidazole was added to the supernatant to a final concentration of 15 mM and the pH adjusted to 8.0. The crude protein extract was loaded on a Nickel—Nitrilotriacetic acid (Ni—NTA) column pre-equilibrated with buffer B (25 mM HEPES, pH8.0, 20% glycerol, 500 mM NaCl, 0.5% Triton-X100, 15 mM imidazole, 5 mM βME). The sample was loaded at a flow rate of 1 mL/min. The column was washed with 15 column volumes of buffer C (same as buffer B except with 0.2% Triton-X100). The protein was eluted with 5 column volumes of buffer D (same as buffer C except with 200 mM Imidazole). […]

T1 sequence (P27958 1027-1657 C1454S): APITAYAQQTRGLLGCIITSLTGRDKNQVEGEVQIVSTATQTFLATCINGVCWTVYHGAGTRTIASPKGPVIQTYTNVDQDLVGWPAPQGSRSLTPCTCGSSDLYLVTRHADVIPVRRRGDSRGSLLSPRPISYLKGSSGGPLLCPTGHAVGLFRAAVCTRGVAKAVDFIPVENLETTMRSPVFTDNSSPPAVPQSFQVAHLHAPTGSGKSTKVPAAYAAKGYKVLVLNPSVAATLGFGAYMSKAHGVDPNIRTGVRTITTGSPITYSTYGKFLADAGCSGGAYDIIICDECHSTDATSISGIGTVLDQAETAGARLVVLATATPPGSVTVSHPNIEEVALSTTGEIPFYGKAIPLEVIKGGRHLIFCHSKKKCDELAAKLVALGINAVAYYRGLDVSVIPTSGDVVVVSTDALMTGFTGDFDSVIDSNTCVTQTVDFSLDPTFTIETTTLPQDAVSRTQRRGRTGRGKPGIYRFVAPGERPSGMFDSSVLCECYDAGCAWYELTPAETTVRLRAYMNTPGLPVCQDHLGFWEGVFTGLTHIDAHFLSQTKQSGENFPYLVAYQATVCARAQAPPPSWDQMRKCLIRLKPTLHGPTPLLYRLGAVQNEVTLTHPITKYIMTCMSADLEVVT
T1 sequence (P27958 1658-1711 partner, looked up, stated change not applied): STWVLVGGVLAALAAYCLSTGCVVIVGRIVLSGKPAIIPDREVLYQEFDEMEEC

`C=CC1C[C@]1(NC(=O)[C@@H]1C[C@@H](Oc2cc(-c3ccccc3)nc3cc(OC)ccc23)CN1C(=O)[C@@H](NC(=O)OC(C)(C)C)C(C)(C)C)C(=O)NS(=O)(=O)c1cc([N+](=O)[O-])c(Cl)s1` (stereo in doubt) [Compound 16, {1-[2-[1-(5-Chloro-4-nitro-thiophene-2-sulfonylaminocarbonyl)-2-vinylcyclopropylcarbamoyl]-4-(7-methoxy-2-phenyl-quinolin-4-yloxy)-pyrrolidine-1-carbonyl]-2,2-dimethyl-propyl}carbamic acid tert-butyl ester]: in experiment [1], the concentration for a half-maximal effect (EC50) was in the range of 100 to 1000 nM. The IC50 in experiment [2] is < 100 nM.

With `C=CC1C[C@]1(NC(=O)[C@@H]1C[C@@H](Oc2cc(-c3ccccc3)nc3cc(OC)ccc23)CN1C(=O)[C@@H](NC(=O)OC(C)(C)C)C(C)(C)C)C(=O)NS(=O)(=O)c1c(C)noc1C` (stereo in doubt) [Compound 14, {1-[2-[1-(3,5-Dimethylisoxazole-4-sulfonylaminocarbonyl)-2-vinyl-cyclopropylcarbamoyl]-4-(7-methoxy-2-phenyl-quinolin-4-yloxy)-pyrrolidine-1-carbonyl]-2,2-dimethyl-propyl}-carbamic acid tert-butyl ester], the EC50 in experiment [1] lay in the range of 100 to 1000 nM. Moreover, in experiment [2], the IC50 was < 100 nM.

Consider `C=CC1C[C@]1(NC(=O)[C@@H]1C[C@@H](Oc2cc(-c3ccccc3)nc3cc(OC)ccc23)CN1C(=O)[C@@H](NC(=O)OC(C)(C)C)C(C)(C)C)C(=O)NS(=O)(=O)c1cc(Cl)c(Br)s1` (stereo partly drawn) [Compound 6, {-[2-{1-[5-Bromo-4-chlorothiophene-2-sulfonylamino-carbonyl]-2-vinylcyclopropylcarbamoyl}-4-(7-methoxy-2-phenyl-quinolin-4-yloxy)pyrrolidine-1-carbonyl]-2,2-dimethylpropyl}carbarmic acid tert-butyl ester], for which the EC50 in experiment [1] was 100 to 1000 nM. Also, in experiment [2], the concentration for half-maximal inhibition (IC50) is < 100 nM.

For `C=CC1C[C@]1(NC(=O)[C@@H]1C[C@@H](Oc2cc(-c3ccccc3)nc3cc(OC)ccc23)CN1C(=O)[C@@H](NC(=O)OC(C)(C)C)C(C)(C)C)C(=O)NS(=O)(=O)c1nc(NC(C)=O)sc1C` (stereo partly drawn) [Compound 11, {1-[2-{1-[2-Acetylamino-5-methylthiazole-4-sulfonylaminocarbonyl]-2-vinylcyclopropylcarbamoyl}-4-(7-methoxy-2-phenyl-quinolin-4-yloxy)pyrrolidine-1-carbony]-2,2-dimethylpropyl}carbamic acid tert-butyl ester], the EC50 in experiment [1] fell in the range of 1000 to 10000 nM. For the same compound, the half-maximal inhibitory concentration (IC50) in experiment [2] is < 100 nM.

`C=CC1C[C@]1(NC(=O)[C@@H]1C[C@@H](Oc2cc(-c3ccccc3)nc3cc(OC)ccc23)CN1C(=O)[C@@H](NC(=O)OC(C)(C)C)C(C)(C)C)C(=O)NS(=O)(=O)c1ccc(Br)s1` (stereo in doubt) [Compound 4, (1-{4-(7-Methoxy-2-phenylquinolin-4-yloxy)-2-[1-(5-Bromothiophene-2-sulfonylaminocarbonyl)-2-vinyl-cyclopropylcarbamoyl]pyrrolidine-1-carbonyl}-2,2-dimethylpropyl)carbamic acid tert-butyl ester]: the EC50 in experiment [1] lay within 100 to 1000 nM. Besides, the IC50 in experiment [2] is < 100 nM.

With `C=CC1C[C@]1(NC(=O)[C@@H]1C[C@@H](Oc2cc(-c3ccccc3)nc3cc(OC)ccc23)CN1C(=O)[C@@H](NC(=O)OC(C)(C)C)C(C)(C)C)C(=O)NS(=O)(=O)c1ccc(Cl)s1` (stereo in doubt) [Compound 2, (1-{4-(7-Methoxy-2-phenylquinolin-4-yloxy)-2-[1-(5-Chlorothiophene-2-sulfonylaminocarbonyl)-2-vinyl-cyclopropylcarbamoyl]-pyrrolidine-1-carbonyl}-2,2-dimethylpropyl)carbamic acid tert-butyl ester], the EC50 in experiment [1] lay in the range of 100 to 1000 nM. In experiment [2], the IC50 was < 100 nM.

The term EC50 denotes the concentration at which the effect is half-maximal. The IC50 is the concentration at which inhibition is half-maximal.
